Source: patent publication US4338302A, “Herbicolin and microbiological method for the preparation thereof” (priority 1979, dated 1982)
Where a SMILES comes first, the peptide text is derived from it. [ ]: non-standard residue; d: D form. Phe(ol) = N[C@H](CO)Cc1ccccc1; Aib = CC(C)(N)C(=O)O

Legend:
[1] = system: Neurospora crassa; assay: Comparative plate diffusion test with membrane-modifying peptide antibiotics (Example 5 (2)); type: cell-based; conditions: 10 μg/plate; in words
Experimental: (§1) Respectively, 10 μg of the corresponding antibiotics is pipetted in the form of a methanolic solution on the filter plates and, after drying, placed on a nutrient substrate inoculated with Neurospora crassa spores.
(2) In the same manner, various membrane-modifying peptide antibiotics are comparison-tested with herbicolin A:
Trichotoxin A 40, Suzukazillin, Alamethicin F 50, and herbicolin A, respectively, 10 μg/plate.

[2] = system: Neurospora crassa; assay: Comparative plate diffusion test with other conventional antifungal substances (Example 5 (1)); type: cell-based
Experimental: as §1

## CC(=O)NC(C)(C)C(=O)N1CCC[C@H]1C(=O)NC(C)(C)C(=O)N[C@@H](C)C(=O)NC(C)(C)C(=O)N[C@@H](C)C(=O)N[C@@H](CCC(N)=O)C(=O)NC(C)(C)C(=O)N[C@H](C(=O)NC(C)(C)C(=O)NCC(=O)N[C@@H](CC(C)C)C(=O)NC(C)(C)C(=O)N1CCC[C@H]1C(=O)N[C@H](C(=O)NC(C)(C)C(=O)NC(C)(C)C(=O)N[C@@H](CCC(=O)O)C(=O)N[C@@H](CCC(N)=O)C(=O)N[C@H](CO)Cc1ccccc1)C(C)C)C(C)C [Alamethicin] (Ac-[Aib]P[Aib]A[Aib]AQ[Aib]V[Aib]GL[Aib]PV[Aib][Aib]EQ[Phe(ol)])
[1]
  inhibition zone: only a weak inhibition zone

## C[C@@H]1[C@H](O)[C@@H](C)/C=C/C=C/C=C/C=C/C=C/C=C/C=C/[C@H](O[C@@H]2O[C@H](C)[C@@H](O)[C@H](N)[C@@H]2O)C[C@@H]2O[C@](O)(C[C@@H](O)C[C@@H](O)[C@H](O)CC[C@@H](O)C[C@@H](O)CC(=O)O[C@H]1C)C[C@H](O)[C@H]2C(=O)O [amphotericin]
[2]; Neurospora crassa, 18 h, read-out: inhibition zone
  zone of inhibition at 10 µg/disc: ~10 mm

## COC1=CC(=O)C[C@@H](C)[C@]12Oc1c(Cl)c(OC)cc(OC)c1C2=O [griseofulvin]
[2]; 10 μg on filter plate, 18 hours, 27° C.
  inhibition zone: no inhibition zone
